According to ChEMBL document CHEMBL1201862, “PubChem BioAssay data set” (2004):
Calls of active or inactive are those of the source.

How the values were obtained:
Streptokinase A = target: T1, Streptokinase A (Streptococcus pyogenes serotype M1, UniProt P10520); assay: S. pyogenes streptokinase expression inhibitors, potency, dose response, plasminogen activation absorbance, OD405 (AID 1914); assay type: functional, Streptococcus pyogenes M1 GAS;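 further: secreted streptokinase activity via plasminogen activation per viability signal from cell pellet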
T1 sequence (P10520 whole entry): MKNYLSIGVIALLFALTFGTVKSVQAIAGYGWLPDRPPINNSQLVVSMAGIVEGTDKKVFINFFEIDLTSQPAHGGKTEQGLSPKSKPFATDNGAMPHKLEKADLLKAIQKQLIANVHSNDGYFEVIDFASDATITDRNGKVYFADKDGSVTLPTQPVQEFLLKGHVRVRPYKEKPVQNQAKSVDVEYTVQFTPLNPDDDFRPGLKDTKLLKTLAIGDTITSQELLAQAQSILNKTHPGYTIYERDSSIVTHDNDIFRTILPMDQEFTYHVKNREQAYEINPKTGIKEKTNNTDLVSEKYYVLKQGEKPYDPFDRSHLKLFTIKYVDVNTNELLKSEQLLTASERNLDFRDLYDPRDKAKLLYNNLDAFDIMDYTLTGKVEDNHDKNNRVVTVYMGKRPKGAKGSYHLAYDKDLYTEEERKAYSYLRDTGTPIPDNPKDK

[1] = system: Streptococcus sp. 'group A'; assay: growth inhibition of control SK(-) GAS strain, dose response, counter-screen for streptokinase expression inhibitor project, luminescence, kanamycin, BacTiterGlo, confirmation (AID 1900); assay type: functional, organism-based
Streptococcus = assay: Group A Streptococcus viability loss, dose response, counter-screen for streptokinase expression inhibitor project, luminescence, BacTiterGlo (AID 1915); assay type: functional, organism-based;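 further: potency for reduction of bacterial viability or growth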
Caspase-3 = target: T2, Caspase-3 (Homo sapiens, UniProt P42574); assay type: functional;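 further: Dose-response selectivity test against caspase-3 for candidate inhibitors of sentrin-specific proteases (SENPs)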
T2 sequence (P42574 whole entry): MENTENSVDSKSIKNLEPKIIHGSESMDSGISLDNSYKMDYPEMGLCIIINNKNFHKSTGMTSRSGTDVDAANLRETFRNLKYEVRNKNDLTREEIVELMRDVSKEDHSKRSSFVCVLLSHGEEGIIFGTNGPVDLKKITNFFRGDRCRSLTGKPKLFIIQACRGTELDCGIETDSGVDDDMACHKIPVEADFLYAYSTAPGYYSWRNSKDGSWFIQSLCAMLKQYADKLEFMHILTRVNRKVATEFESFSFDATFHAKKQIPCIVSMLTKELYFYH

[2] = target: T3, Sentrin-specific protease 7 (Homo sapiens, UniProt Q9BQF6); assay type: functional;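 further: Luminescence-based dose-response confirmation of ultra-high-throughput screening hits, measuring inhibition of SENP7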
T3 sequence (Q9BQF6 whole entry): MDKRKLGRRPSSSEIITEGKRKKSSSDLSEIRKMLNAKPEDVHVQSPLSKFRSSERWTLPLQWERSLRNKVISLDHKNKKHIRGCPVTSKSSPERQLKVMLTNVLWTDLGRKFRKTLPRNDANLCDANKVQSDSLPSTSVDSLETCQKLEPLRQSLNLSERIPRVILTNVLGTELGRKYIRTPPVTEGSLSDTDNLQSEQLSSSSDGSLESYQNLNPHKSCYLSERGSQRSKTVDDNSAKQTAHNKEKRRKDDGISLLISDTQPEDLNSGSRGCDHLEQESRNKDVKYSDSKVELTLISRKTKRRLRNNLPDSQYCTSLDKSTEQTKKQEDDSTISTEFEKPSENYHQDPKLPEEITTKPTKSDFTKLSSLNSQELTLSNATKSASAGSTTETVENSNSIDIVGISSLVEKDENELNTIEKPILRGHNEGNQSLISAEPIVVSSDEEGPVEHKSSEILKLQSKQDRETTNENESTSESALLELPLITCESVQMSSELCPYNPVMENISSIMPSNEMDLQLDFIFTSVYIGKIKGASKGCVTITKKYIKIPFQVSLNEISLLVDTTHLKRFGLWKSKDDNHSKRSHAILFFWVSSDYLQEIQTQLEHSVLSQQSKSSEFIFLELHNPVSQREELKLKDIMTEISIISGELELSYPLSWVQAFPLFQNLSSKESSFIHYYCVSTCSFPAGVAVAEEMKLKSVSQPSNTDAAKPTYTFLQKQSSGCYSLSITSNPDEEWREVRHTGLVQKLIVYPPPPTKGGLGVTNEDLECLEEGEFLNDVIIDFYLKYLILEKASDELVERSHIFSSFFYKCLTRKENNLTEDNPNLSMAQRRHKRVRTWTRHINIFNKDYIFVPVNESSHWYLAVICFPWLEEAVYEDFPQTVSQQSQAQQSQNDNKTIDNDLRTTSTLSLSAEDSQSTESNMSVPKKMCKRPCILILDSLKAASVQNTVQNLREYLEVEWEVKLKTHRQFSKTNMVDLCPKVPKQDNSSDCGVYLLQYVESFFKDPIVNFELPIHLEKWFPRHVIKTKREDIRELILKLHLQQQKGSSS

[3] = target: T4, Oxysterols receptor LXR-beta (Homo sapiens, UniProt P55055); assay type: functional, cell-based;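 further: agonist activity at LXR measured by a cell-based luminescence readout across a dose range, run as a counterscreen for daf-12 agonists; HEK293 cells with Gal4-LXR fusion and GAL4-driven luciferase reporter; potency for activation of Gal4-LXR reporter so compounds are agonists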
T4 sequence (P55055 whole entry): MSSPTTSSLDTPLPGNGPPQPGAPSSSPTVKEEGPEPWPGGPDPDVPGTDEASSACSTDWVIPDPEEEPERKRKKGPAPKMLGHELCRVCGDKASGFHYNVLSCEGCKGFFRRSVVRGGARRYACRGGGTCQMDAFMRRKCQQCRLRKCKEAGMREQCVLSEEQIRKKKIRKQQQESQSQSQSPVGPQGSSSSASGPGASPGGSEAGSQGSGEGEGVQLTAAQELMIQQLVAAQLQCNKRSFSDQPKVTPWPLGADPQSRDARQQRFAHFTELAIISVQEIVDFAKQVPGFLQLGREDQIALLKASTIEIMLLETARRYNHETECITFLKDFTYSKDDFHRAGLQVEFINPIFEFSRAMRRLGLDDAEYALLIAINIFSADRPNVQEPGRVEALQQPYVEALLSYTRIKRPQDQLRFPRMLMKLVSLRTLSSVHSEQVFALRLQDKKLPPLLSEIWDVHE

[4] = target: T5, Sentrin-specific protease 6 (Homo sapiens, UniProt Q9GZR1); assay type: functional;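 further: Luminescence-based dose-response confirmatory assay of SENP6 inhibition, following up an ultra-high-throughput screen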
T5 sequence (Q9GZR1 whole entry): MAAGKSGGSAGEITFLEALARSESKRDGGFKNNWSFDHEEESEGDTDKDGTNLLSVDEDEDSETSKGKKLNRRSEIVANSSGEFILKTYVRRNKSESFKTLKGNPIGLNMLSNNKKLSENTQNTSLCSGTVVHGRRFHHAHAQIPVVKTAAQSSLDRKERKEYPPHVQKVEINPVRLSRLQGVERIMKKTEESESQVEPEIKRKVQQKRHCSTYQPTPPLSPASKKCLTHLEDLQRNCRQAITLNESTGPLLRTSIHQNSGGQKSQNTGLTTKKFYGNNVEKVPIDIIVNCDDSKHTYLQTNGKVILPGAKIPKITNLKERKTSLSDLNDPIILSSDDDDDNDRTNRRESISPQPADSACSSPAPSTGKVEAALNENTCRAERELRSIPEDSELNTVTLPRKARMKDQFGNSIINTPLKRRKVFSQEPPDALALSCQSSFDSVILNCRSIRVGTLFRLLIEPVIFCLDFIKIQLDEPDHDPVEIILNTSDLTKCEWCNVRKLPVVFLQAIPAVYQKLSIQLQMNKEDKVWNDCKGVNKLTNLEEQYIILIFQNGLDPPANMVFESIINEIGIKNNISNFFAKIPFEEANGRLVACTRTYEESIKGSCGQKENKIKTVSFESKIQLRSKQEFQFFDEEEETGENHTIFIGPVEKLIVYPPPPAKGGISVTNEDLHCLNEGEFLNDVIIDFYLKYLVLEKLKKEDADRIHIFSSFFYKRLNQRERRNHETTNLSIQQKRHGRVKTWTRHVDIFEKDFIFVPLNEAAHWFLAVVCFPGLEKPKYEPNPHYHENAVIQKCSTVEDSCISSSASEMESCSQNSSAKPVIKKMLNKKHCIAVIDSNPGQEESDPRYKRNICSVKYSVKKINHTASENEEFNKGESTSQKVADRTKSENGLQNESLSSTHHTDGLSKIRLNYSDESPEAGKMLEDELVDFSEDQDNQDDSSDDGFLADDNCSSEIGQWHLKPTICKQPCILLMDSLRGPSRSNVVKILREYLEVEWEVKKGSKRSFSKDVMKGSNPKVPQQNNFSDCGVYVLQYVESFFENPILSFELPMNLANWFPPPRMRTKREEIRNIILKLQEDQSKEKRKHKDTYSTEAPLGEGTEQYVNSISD

[5] = target: T6, Sentrin-specific protease 8 (Homo sapiens, UniProt Q96LD8); assay type: functional;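 further: luminescence read-out of SENP8 inhibition, dose-response confirmation following an ultra-high-throughput screen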
T6 sequence (Q96LD8 whole entry): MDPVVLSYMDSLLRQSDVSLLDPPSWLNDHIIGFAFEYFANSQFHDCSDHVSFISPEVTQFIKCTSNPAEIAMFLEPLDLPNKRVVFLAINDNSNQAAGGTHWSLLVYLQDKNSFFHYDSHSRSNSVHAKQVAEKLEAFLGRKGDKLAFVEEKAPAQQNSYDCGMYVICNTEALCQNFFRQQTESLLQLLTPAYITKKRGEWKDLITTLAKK

HEK293 = assay: HEK293T cell cytotoxicity, dose response, cytotoxicity control, ATP luminescence, cherry-pick samples (AID 687005); assay type: functional, cell-based; conditions: Homo sapiens;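 further: cells exposed to compound for 48 hours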
[6] = HEK293 Cytotoxicity Assay Measured in Cell-Based System Using Plate Reader - 7071-01_Inhibitor_Dose_CherryPick_Activity_Set2.; assay type: functional
[7] = target: COUP transcription factor 2 (Homo sapiens, UniProt P24468); assay: Luminescence-based cell-based high throughput dose response assay to identify inhibitors of COUP-TFII (NR2F2).; assay type: functional;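 further: HEK293 cells transiently cotransfected with COUP-TFII expression vector and reporter; luciferase reporter luminescence driven by COUP-TFII from the pX2-168 reporter plasmid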
[8] = Shn3 3'UTR reporter inhibitors, dose response, cell-based, Clone20 osteoblasts, firefly luciferase, cherry-picked (AID 624132); assay type: functional;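 further: firefly luciferase luminescence from reporter carrying the Shn3 3'UTR in osteoblasts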
[9] = control 3'UTR Renilla luciferase suppression, dose response, counter-screen for Shn3 inhibitor project, cell-based, Clone20-Shn3RL, cherry-picked (AID 624133); assay type: functional
[10] = HepG2 cell cytotoxicity, dose response, cytotoxicity control for Shn3 inhibitor project, CellTiter-Glo, cherry-picked (AID 624134); assay type: functional, cell-based

Sequence of COUP transcription factor 2 (P24468 whole entry): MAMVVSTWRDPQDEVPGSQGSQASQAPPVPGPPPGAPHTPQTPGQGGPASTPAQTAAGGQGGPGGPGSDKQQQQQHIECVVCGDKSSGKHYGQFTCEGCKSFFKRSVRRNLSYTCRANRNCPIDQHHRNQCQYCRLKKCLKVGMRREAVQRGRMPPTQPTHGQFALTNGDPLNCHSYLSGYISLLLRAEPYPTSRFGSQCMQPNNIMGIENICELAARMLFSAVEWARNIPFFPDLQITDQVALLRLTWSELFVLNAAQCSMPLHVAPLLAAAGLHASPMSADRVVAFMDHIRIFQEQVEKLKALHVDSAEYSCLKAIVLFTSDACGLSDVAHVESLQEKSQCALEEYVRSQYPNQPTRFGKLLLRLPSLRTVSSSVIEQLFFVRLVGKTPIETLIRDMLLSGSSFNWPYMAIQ

Q: Which results are given for O=c1c2cc(-c3ccccc3)sc2nc2n1CCC2?
A: EC50 (Streptokinase A): > 150 µM (not active); EC50 [1]: 11.3 µM (active); EC50 (Streptococcus): > 150 µM (not active); IC50 (Caspase-3): 5.94 µM (active); IC50 [2]: 6.17 µM (active); EC50 [3]: > 67.5 µM (inactive); IC50 [4]: 20.8 µM (active); IC50 [5]: 10.9 µM (active)

Q: What does the source list for COc1cccc(S(=O)(=O)Nc2ccc3c(c2)[C@@H]2C[C@@H](CC(=O)NCc4cccc(F)c4)O[C@H](CO)[C@@H]2O3)c1?
A: AC50 (HEK293): 27.7 µM (active); AC50 [6]: 27.7 µM (active)

Q: What does the source list for OC[C@@H]1CN(Cc2ccc(-c3ccccc3)cc2)C[C@H](n2cnc3c(NCc4ccc(F)cc4)ncnc32)O1?
A: IC50 [7]: 8.22 µM (active); AC50 [8]: 1.58 µM (active); AC50 [9]: 4.44 µM (active); AC50 [10]: 64.5 µM (active)
